Data: patent US9447114B2, “Thieno- and furo[2,3-d]pyrimidine-2,4[1H,3H]-dione derivatives” (Hydra Biosciences, Inc., priority 2014, dated 2016)

Columns and labels:
TRPC5 channel [1] = molecular target: T1, TRPC5 channel (Homo sapiens (Human), UniProt Q9UL62); test: High throughput screening assay: intracellular Ca2+ rise, Fluo4 cell-based fluorescence; conditions: HEK293/TREx cells inducibly expressing TRPC5, high-Ca2+ Ringer, 14 mM Ca2+ final, triplicate, 0.027-20 μM
Source text: The assay depended on detection of the rise in intracellular Ca2+ concentration ([Ca2+]i) following channel activation in cells inducibly expressing the TRPC5 channel. Ca2+ rise was quantified with the use of fluorescent Ca2+ indicators that were loaded into cells and thereafter indicated the [Ca2+]i Ca2+ influx followed activation of the TRPC5 channel. Compounds inhibiting the [Ca2+]i rise were considered hits for further investigation.
The commercially available HEK293/TREx line (Invitrogen) was stably transfected with a TRPC5 construct and screened by conventional calcium imaging to find clones with TRPC5 expression following stimulation with 1 μg/ml tetracycline. These cells were maintained in the growth medium recommended by the manufacturer supplemented with 100 μg/ml hygromycin to promote retention of the TRPC5 construct. After growing to near confluency, cells were plated at a density of ˜35,000 cells/well in 384 well CellBind plates (Corning) in the presence of 1 μg/ml tetracycline, and allowed to grow for 20-30 hrs. A nearly confluent monolayer resulted. Cells were then loaded with Ca2+ dye: Fura-2/AM or Fluo4/AM was added to the wells to a final concentration of 4 μM or 0.5 μM, respectively, and incubated for 80 min or 60 min, respectively, at room temperature. Supernatant was then removed from the cells by inverting plates with a sharp flick, and 25 μl Hank's Balanced Salt Solution (HBSS; 0.185 g/l D-glucose, 0.9767 g/l MgS04 (anhydrous), 0.4 g/l KCl, 0.06 g/l KH2PO4 (anhydrous), 0.35 g/l NaHCO3, 8.0 g/l NaCl, and 0.04788 g/l Na2HPO4 (anhydrous); pH 7.4) was then added to each well. Following ˜0.5 hour for recovery from loading, cells were assayed using the Hamamatsu FDSS 6000 system, which permitted illumination alternately at 340 nm and 380 nm for Fura-2 experiments, or at 485 nm for Fluo4 experiments. Frames were acquired at a rate of 0.2 Hz. During the assay, the plates were continuously vortexed, with pipette mixing of wells following addition of each reagent. For the screening assay, 26 μl of a diluted compound stock (at 50 μM) was added to each well for 2 minutes following the collection of a short (4 frame) baseline. 13 μl 62 mM high-Ca2+Ringer solution (4.17 ml of normal ringer (with 2 mM Ca2+) plus 5.83 ml of isotonic calcium ringer (105 mM Ca2+; in this ringer all sodium has been replaced with calcium)) was then added to each well, achieving a final concentration of 14 mM Ca2+ and 10 μM test compound. Data was collected for ˜3 minutes following addition of high Ca2+Ringer, where the fluorescent intensity (for Fluo4) and the F340/F380 ratio (for Fura-2) were proportional to the [Ca2+]i Negative controls consisted of HEK293/TREx TRPC5 cells exposed to high Ca2+ solution, but no compound. Positive control conditions consisted of addition of 2-APB, a promiscuous blocker of TRPC5 and other channels, to columns 23 and 24 of the plates, to a final concentration of 200 μM. These controls defined a screening window, and “hits” were defined as those compounds inhibiting the fluorescence response by at least 40%. IC50 values were determined for compounds defined as “hits.” The Fluo4 cell-based fluorescence assay was used to determine the intracellular Ca2+ concentration in the presence of varying drug concentration. Final concentrations of compounds tested were 20 μM, 6.667 μM, 2.222 μM, 0.741 μM, 0.247 μM, 0.082 μM, and 0.027 μM. Compounds were tested in triplicate at all concentrations. Standard software was used to fit IC50 curves.
Additionally or alternatively, efficacy can be represented as % inhibition in the presence (of a given concentration of compound) versus the absence of compound or in comparison to a control compound. For example, efficacy can be represented as % inhibition of ion flux in the presence versus the absence of compound.

TRPC5 channel [2] = molecular target: T1, TRPC5 channel; test: Whole-cell patch clamp of TRPC5 current; assay type: cell-based; conditions: TRPC5-expressing HEK293 TREx cells, current activated by 80 μM LaCl3 and 1.4 μM free Ca2+ in pipette, IC50 estimated
Source text: Patch clamp experiments permit the detection of currents through the TRPC5 channel in the cell line described above. In normal whole-cell patch clamp recordings, a glass electrode is brought into contact with a single cell and a high-resistance (gigaohm) seal is established with the cell membrane. The membrane is then ruptured to achieve the whole-cell configuration, permitting control of the voltage of the cell membrane and measurement of currents flowing across the membrane using the amplifier attached to the electrode and resulting in the replacement of cytoplasm with the pipette solution. A perfusion system permits control of the extracellular solution, including the addition of blockers and activators of the current. The current can be activated by including 1.4 μM free Ca^2+ in the pipette (intracellular) solution, and 80 μM LaCl3 in the extracellular solution.
TRPC5 cells were induced 20-48 hours, removed from growth plates, and replated at low density (to attain good single-cell physical separation) on glass coverslips for measurement. In some cases, cells were grown in low density overnight on glass coverslips. Patch clamp recordings were made in the whole-cell mode with a holding potential of −40 mV. Every 5 seconds, a voltage ramp was applied from −120 to +100 mV, 400 ms in duration. Currents elicited were quantified at −80 mV and +80 mV. The internal solution consisted of 140 mM cesium aspartate, 10 mM HEDTA, 2 mM CaCl2, 2.27 mM MgCl2 and 10 mM HEPES, pH 7.2, with 1,400 nM calculated free Ca^2+. The external solution consisted of 150 mM NaCl, 4.5 mM KCl, 1 mM MgCl2, 2 mM CaCl2 10 mM HEPES, 10 mM glucose, 1 mM EGTA, pH 7.4. Upon addition of LaCl3, TRPC5 current was induced only in TRPC5-expressing cells and not in parental HEK293 TREx cells. Removal of the LaCl3 stimulus causes most of the current to go away. Potential blockers were tested for ability to block both inward and outward currents in the continued presence of LaCl3.
IC50 of a compound of Formula (I) was estimated by testing the compound at 5 μM and 500 nM. […] IC50 for a compound of Formula (I) between 500 nM and 5 μM was similarly estimated.

T1 sequence (Q9UL62 whole entry): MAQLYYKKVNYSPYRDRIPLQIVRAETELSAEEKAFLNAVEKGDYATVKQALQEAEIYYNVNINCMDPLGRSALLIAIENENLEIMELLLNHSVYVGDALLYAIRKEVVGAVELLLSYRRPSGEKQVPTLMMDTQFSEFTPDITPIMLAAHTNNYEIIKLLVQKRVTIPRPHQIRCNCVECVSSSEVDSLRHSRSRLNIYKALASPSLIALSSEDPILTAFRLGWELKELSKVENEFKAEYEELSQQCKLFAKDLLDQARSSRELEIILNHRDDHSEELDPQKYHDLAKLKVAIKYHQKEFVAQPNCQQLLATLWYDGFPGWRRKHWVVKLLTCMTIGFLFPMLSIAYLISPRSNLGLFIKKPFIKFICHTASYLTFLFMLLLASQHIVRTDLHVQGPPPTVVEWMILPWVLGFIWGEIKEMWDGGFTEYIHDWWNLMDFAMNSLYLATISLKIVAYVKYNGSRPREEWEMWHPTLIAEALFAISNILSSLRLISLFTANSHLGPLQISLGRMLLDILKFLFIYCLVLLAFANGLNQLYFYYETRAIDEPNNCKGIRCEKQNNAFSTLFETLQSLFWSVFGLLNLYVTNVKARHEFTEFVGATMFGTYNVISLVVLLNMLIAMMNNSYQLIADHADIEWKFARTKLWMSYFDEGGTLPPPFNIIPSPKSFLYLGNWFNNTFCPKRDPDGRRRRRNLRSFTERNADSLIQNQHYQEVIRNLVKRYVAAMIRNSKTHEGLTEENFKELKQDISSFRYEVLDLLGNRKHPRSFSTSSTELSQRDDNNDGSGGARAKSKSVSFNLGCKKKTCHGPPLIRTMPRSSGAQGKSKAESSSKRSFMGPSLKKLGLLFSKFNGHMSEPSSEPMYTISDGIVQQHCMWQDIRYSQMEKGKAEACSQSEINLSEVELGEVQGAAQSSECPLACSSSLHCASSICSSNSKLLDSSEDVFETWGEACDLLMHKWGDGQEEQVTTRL

IC50 (TRPC5 channel [1]): 168 nM
IC50 (TRPC5 channel [2]): 15.7 nM
Structure (SMILES): Cc1c(-c2ccc(Cl)cc2)sc2c1c(=O)n(CCCO)c(=O)n2C [Compound 25, 6-(4-chlorophenyl)-3-(3-hydroxypropyl)-1,5-dimethylthieno[2,3-d]pyrimidine-2,4(1H,3H)-dione]
